Among the data in paper PMC11558128 (Advanced Science, 2024) are IC50 values, retold here.

What all share (experiment): cell-based
Common to all, as to settings: mean ± SEM

In one assay the target is T1, rKv4.2 V278A (Rattus norvegicus, UniProt Q63881, V278A).
T1 construct: expressed in transfected cells; host or cells: HEK293T
T1 sequence (Q63881 1-630 V278A): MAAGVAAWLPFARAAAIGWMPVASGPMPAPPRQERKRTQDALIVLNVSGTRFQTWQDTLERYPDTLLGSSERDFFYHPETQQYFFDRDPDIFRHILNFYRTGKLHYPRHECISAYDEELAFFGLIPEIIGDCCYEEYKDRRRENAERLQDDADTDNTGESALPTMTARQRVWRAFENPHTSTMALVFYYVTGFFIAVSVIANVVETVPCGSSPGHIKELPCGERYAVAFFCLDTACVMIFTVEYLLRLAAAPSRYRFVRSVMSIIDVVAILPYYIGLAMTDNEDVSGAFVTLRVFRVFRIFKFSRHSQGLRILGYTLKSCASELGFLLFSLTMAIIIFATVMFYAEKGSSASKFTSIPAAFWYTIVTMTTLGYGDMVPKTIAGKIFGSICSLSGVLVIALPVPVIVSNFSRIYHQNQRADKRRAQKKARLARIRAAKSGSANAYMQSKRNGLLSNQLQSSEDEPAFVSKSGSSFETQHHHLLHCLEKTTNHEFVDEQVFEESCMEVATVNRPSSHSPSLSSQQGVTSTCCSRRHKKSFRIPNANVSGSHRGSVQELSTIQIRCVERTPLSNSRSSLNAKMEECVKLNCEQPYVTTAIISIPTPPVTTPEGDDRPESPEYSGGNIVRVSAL

A further assay deals with T2, rKv4.2 N282A (Rattus norvegicus, UniProt Q63881, N282A).
T2 construct: expressed in transfected cells; host or cells: HEK293T
T2 sequence (Q63881 1-630 N282A): T1 sequence (Q63881 1-630 V278A) with A278V, N282A

A further assay deals with T3, rKv4.2 T280A (Rattus norvegicus, UniProt Q63881, T280A).
T3 construct: expressed in transfected cells; host or cells: HEK293T
T3 sequence (Q63881 1-630 T280A): T1 sequence (Q63881 1-630 V278A) with A278V, T280A

A further assay concerns the target T4, rKv4.2 D284K (Rattus norvegicus, UniProt Q63881, D284K).
T4 construct: expressed in transfected cells; host or cells: HEK293T
T4 sequence (Q63881 1-630 D284K): T1 sequence (Q63881 1-630 V278A) with A278V, D284K

Numbering of substitutions follows the chain as printed. Positions of bridges follow the written chain, without caps; N, C: chain ends. Residues, ends and D or L forms follow the SMILES beside them. Where only a bound is given, the exact number is not on record here.

One may read the IC50 as the concentration that gives 50% inhibition. The low end stands for inhibition by little substance, the high end for a need for much substance. As to `CC(C)C[C@H](NC(=O)[C@H](Cc1ccc(O)cc1)NC(=O)[C@@H](NC(=O)[C@H](CCCCN)NC(=O)[C@@H]1CSSC[C@@H]2NC(=O)[C@H](CCC(=O)O)NC(=O)[C@H](CC(N)=O)NC(=O)[C@H](CCCCN)NC(=O)CNC(=O)[C@@H]3CCCN3C(=O)[C@H]([C@@H](C)O)NC(=O)[C@@H]3CSSC[C@H](NC(=O)[C@H](C)NC(=O)[C@H](Cc4ccc(O)cc4)NC(=O)[C@H](CC(N)=O)NC(=O)[C@@H]4CCCN4C(=O)[C@H](CSSC[C@H](NC(=O)CN)C(=O)N[C@@H](CCCCN)C(=O)NCC(=O)N[C@@H](Cc4ccccc4)C(=O)NCC(=O)N[C@@H](CC(=O)O)C(=O)N[C@@H](CO)C(=O)N3)NC2=O)C(=O)N[C@@H](CO)C(=O)N[C@@H](CO)C(=O)N[C@@H](CCCCN)C(=O)N[C@@H](Cc2c[nH]cn2)C(=O)N[C@@H](CCCCN)C(=O)N[C@@H](Cc2c[nH]c3ccccc23)C(=O)N1)C(C)C)C(N)=O` [HNTX-III] (H-GCKGFGDSCTPGKNECCPNYACSSKHKWCKVYL-NH2; disulfide 2-17, 9-22, 16-29), the IC50 against rKv4.2 V278A was 177 ± 63 nM; at rKv4.2 N282A, 8 ± 2 nM; against rKv4.2 T280A, 38 ± 14 nM; at rKv4.2 D284K, > 20000 nM.

Consider `CC[C@H](C)[C@H](NC(=O)[C@H](CCC(=O)O)NC(=O)[C@H](Cc1ccc(O)cc1)NC(=O)[C@H](CCCCN)NC(=O)[C@@H]1CSSC[C@@H]2NC(=O)[C@H](CCC(N)=O)NC(=O)[C@H](CC(=O)O)NC(=O)[C@H](CC(N)=O)NC(=O)[C@H](CO)NC(=O)[C@@H]3CCCN3C(=O)[C@H](CC(N)=O)NC(=O)[C@@H]3CSSC[C@H](NC(=O)[C@H](C(C)C)NC(=O)[C@H](CC(C)C)NC(=O)[C@H](CC(N)=O)NC(=O)[C@H](CO)NC(=O)[C@H](CO)NC(=O)[C@H](CCCCN)NC(=O)[C@H](CSSC[C@H](NC(=O)[C@@H](N)CCC(=O)O)C(=O)N[C@@H](CC(C)C)C(=O)NCC(=O)N[C@@H](Cc4ccccc4)C(=O)NCC(=O)N[C@@H](CCCCN)C(=O)NCC(=O)N3)NC2=O)C(=O)N[C@@H](CO)C(=O)N[C@@H](CCCNC(=N)N)C(=O)N[C@@H](CCCCN)C(=O)N[C@@H](Cc2c[nH]cn2)C(=O)N[C@@H](CCCNC(=N)N)C(=O)N[C@@H](Cc2c[nH]c3ccccc23)C(=O)N1)C(N)=O` [HNTX-IV], for which the concentration for half-maximal inhibition (IC50) is 182 ± 50 nM against rKv4.2 V278A, 11 ± 2 nM against rKv4.2 N282A, 136 ± 21 nM on rKv4.2 T280A and > 20000 nM at rKv4.2 D284K.

Turning to `CC(C)C[C@@H]1NC(=O)[C@H](Cc2c[nH]c3ccccc23)NC(=O)[C@H](Cc2ccc(O)cc2)NC(=O)[C@H](CCCNC(=N)N)NC(=O)[C@@H](NC(=O)[C@@H](N)CCC(=O)O)CSSC[C@@H]2NC(=O)[C@@H]3CSSC[C@@H](C(=O)N[C@H](C(=O)N[C@@H](Cc4c[nH]c5ccccc45)C(=O)N[C@@H](CC(=O)O)C(=O)N[C@@H](Cc4c[nH]c5ccccc45)C(=O)N[C@H](C(=O)N[C@@H](Cc4ccccc4)C(N)=O)[C@@H](C)O)C(C)C)NC(=O)[C@H](Cc4c[nH]c5ccccc45)NC(=O)CNC(=O)[C@H](Cc4c[nH]cn4)NC(=O)[C@H](CCCCN)NC(=O)[C@@H]4CCCN4C(=O)[C@H](CO)NC(=O)[C@H](CSSC[C@H](NC(=O)[C@H]([C@@H](C)O)NC(=O)CNC1=O)C(=O)N[C@@H](CO)C(=O)N[C@@H](CCCCN)C(=O)N[C@@H]([C@@H](C)O)C(=O)NCC(=O)N[C@@H](CC(=O)O)C(=O)N3)NC(=O)[C@H](CO)NC(=O)[C@H](CC(C)C)NC(=O)[C@H](Cc1c[nH]cn1)NC(=O)[C@H](CO)NC2=O` [HNTX-VIIa] (H-ECRYWLGTCSKTGDCCSHLSCSPKHGWCVWDWTF-NH2; disulfide 2-16, 9-21, 15-28), the IC50 was 53 ± 6 nM against rKv4.2 V278A, 21 ± 1 nM against rKv4.2 N282A, 13 ± 2 nM against rKv4.2 T280A and 47 ± 6 nM against rKv4.2 D284K (SEM).

On to `CSCC[C@@H]1NC(=O)CNC(=O)[C@H](CCC(=O)O)NC(=O)[C@@H]2CSSC[C@H](NC(=O)[C@@H](N)Cc3ccc(O)cc3)C(=O)N[C@@H](CCC(N)=O)C(=O)N[C@@H](CCCCN)C(=O)N[C@@H](Cc3c[nH]c4ccccc34)C(=O)N[C@@H](CCSC)C(=O)N[C@@H](Cc3c[nH]c4ccccc34)C(=O)N[C@@H]([C@@H](C)O)C(=O)N[C@H]3CSSC[C@H](NC(=O)[C@H](C(C)C)NC1=O)C(=O)N[C@@H](CCCNC(=N)N)C(=O)N[C@@H](CC(C)C)C(=O)N[C@@H](Cc1c[nH]c4ccccc14)C(=O)N[C@H](C(=O)N[C@@H](CCCCN)C(=O)N[C@@H](CCCCN)C(=O)N[C@@H](CCCCN)C(=O)N[C@@H](CC(C)C)C(=O)N[C@@H](Cc1c[nH]c4ccccc14)C(=O)O)CSSC[C@H](NC(=O)[C@H](CCCCN)NC(=O)[C@H](CCCNC(=N)N)NC(=O)[C@H](CCC(=O)O)NC(=O)[C@H](CO)NC(=O)[C@H](CC(=O)O)NC3=O)C(=O)N2` [ProTx-II], for which the IC50 against rKv4.2 V278A came out at 10 ± 2 nM; against rKv4.2 N282A, 7 ± 1 nM; against rKv4.2 T280A, 89 ± 21 nM; at rKv4.2 D284K (SEM) it was 20 ± 2 nM.

As for `CC[C@H](C)[C@@H]1NC(=O)[C@@H]2CSSC[C@@H]3NC(=O)[C@H](C(C)C)NC(=O)[C@H](CC(C)C)NC(=O)[C@H](CC(N)=O)NC(=O)[C@@H]4CCCN4C(=O)[C@H](CCCNC(=N)N)NC(=O)[C@H](CSSC[C@H](NC(=O)[C@@H](N)CC(=O)O)C(=O)N[C@@H](CC(C)C)C(=O)NCC(=O)N[C@@H](C)C(=O)N[C@@H](Cc4ccccc4)C(=O)N[C@@H](CCCNC(=N)N)C(=O)N[C@@H](CCCCN)C(=O)N2)NC(=O)[C@H](CSSC[C@@H](C(=O)N[C@@H](CCCCN)C(=O)N[C@@H](Cc2ccc(O)cc2)C(=O)N[C@H](C(=O)N[C@@H](Cc2ccccc2)C(N)=O)C(C)C)NC(=O)[C@H](Cc2c[nH]c4ccccc24)NC(=O)[C@H](CCCNC(=N)N)NC(=O)[C@H](Cc2cnc[nH]2)NC(=O)[C@H](CC(C)C)NC(=O)[C@H](CCCNC(=N)N)NC(=O)[C@H](CO)NC3=O)NC(=O)[C@H](CCCCN)NC(=O)[C@H](CC(=O)O)NC(=O)[C@H](CC(N)=O)NC(=O)[C@H](CC(=O)O)NC(=O)[C@@H]2CCCN2C1=O` [mGpTx1] (H-DCLGAFRKCIPDNDKCCRPNLVCSRLHRWCKYVF-NH2; disulfide 2-17, 9-23, 16-30), the concentration for half-maximal inhibition (IC50) at rKv4.2 V278A came to 2850 ± 1310 nM; against rKv4.2 N282A, 17 ± 5 nM; on rKv4.2 T280A, 150 ± 32 nM; on rKv4.2 D284K (SEM), 663 ± 179 nM.
